The record followed here is patent USRE42072E1, “Compositions and methods for enhancing receptor-mediated cellular internalization” (The Penn State Research Foundation, priority 1996, dated 2011).

For data set [1], the system named is luteinizing hormone (LH). Kind of data set: Serum LH response to iv injection and vaginal administration of LHRH analog in intact ewes. In kind it is in vivo, sheep. How it is done: FIGS. 1a and 1b are graphs showing serum responses to iv injection and vacinal administration of vasopressin and leuprolide acetate. […] Vasopressin was injected intravenously ([…]) through a jugular catheter. The peptide was delivered vaginally in 5 ml of aqueous solution (200 g does). Standard errors are based on n=6. […] LHRH analog was injected intravenously ([…]) into through a jugular catheter. The peptide was delivered vaginally in 5 ml of aqueous solution (200 g dose). Standard errors are based on n=6.
FIG. 2 is a graph showing bioavailability of LHRH analog following vaginal administration as a function of methyl cellulose (“methocel”) concentration. Bioavailability is determined relative to intravenous injection (FIG. 1b) and is based on LH response. The administered dose of LHRH analog was 200 g in 5 ml of methocel solution. Results are based on animals that responded to vaginal treatment, with standard error computed on the basis of n≧4 In all cases, less than 50% of treated animals responded with LH levels greater than 3 ng/ml for more than one sampling point, with sampling times of 0, 30, 60, 90, 120, 180, 240, 360, and 480 min.
(§1) First, a peptide that undergoes receptor-mediated transport across the vaginal epithelium was identified by studying the permeation of peptides of varying molecular weight in a sheep model. Peptides were delivered vaginally to sheep in 5 ml of aqueous or methocel solutions with typical peptide concentrations of 10-40 μg/ml. A group of 18 intact ewes were utilized for these experiments. For each study, sheep were randomly assigned to a treatment group. In GnRH studies where each animal received all possible treatment combinations, each animal was assigned to an initial treatment group at random and subsequently randomly to each of the remaining treatment groups. A minimum of 5 days (typically 10 or more days) was allowed between experiments on a given animal, to provide sufficient time for complete recovery of pituitary responsiveness to the highest doses of the GnRH agonist used A 16G 150 mm jugular catheter (Abbocath-T, Abbott Laboratories, Chicago, Ill.) was inserted and blood samples collected at 0, 30, 60, 90, 120, 180, 240, 360, 480 and 1440 min. after treatment. Luteinizing hormone (LH) levels were determined.
(§2) LHRH analog was placed in methyl cellulose solutions (“methocels”) of varying apparent viscosity. […] First, 200 μg of leuprolide acetate in 5 ml of aqueous solutions with melhocel weight concentrations varying between 0% and 3.0% were vaginally administered.

The next data set in a line: in vivo. In kind it is in vivo, sheep. As to conditions: female, sheep, in vivo, 40 ug, bioavailability. How it is done: (§3) FIG. 3 is a graph showing the percent of responding animals to LHRH analog vaginal delivery as a function of (simulated) stage of the estrous cycle. Stage of estrous cycle was simulated by delivering estradiol for two weeks to ovariectomized ewes (anestrus phase), followed by two weeks of delivery of estradiol and progesterone (mid-luteal phase), followed by a period of 48 h after progesterone withdrawal (follicular phase). In each simulated phase, 10, 40, or […] of LHRH analog were delivered vaginally in 5 ml of aqueous or methocel solution to groups of six ewes. Responding animals were defined as those treated animals with LH serum values exceeding 3 ng/ml for two or more sampling points, with sampling times of 0, 30, 60, […], 120, 180, 240, 360, and 480 min.
(§4) FIG. 4 is a graph showing serum LH response to vaginal administration of LHRH analog. LHRH analog-was administered vaginally in ovariectomized ewes during the simulated mid-luteal phase in 5 ml of aqueous or methocel (1.75% methyl cellulose) solution (40 μg dose). Standard errors are based on n=6.
(§5) It was therefore hypothesized that the responsiveness of animals to LHRH analog vaginal delivery varied with steroid-dependent hormone receptor expression (estrous cycle). To test this hypothesis, a group of ewes was ovariectomized and administered estradiol and progesterone to mimic the animals' estrous cycle. Ewes were pre-medicated with atropine (0.02 mg/lb) and Telazol (R) (2 mg/lb) intramuscularly. After induction of recumbency, thipental (5% in water) was administered intravenously to induce sufficient anesthesia to permit endotracheal intubation. Anesthesia was maintained using halothane in oxygen at 1-2 liters per minute. Ovaries were removed through a mid-line incision.
(§6) Within 24 h of surgery, a 1.5 cm silicone implant of estradiol (Compudose 200, Elanco, Ind.) was inserted into the left ear to provide a basal level of estradiol. The anestrus state was simulated after two weeks of estradiol delivery following surgery. Experiments were performed in the simulated anestrus state (i.e. two weeks after surgery) as described above. Immediately following the last blood sample, a progesterone-releasing intravaginal device (CIDR-G, Carter Hold Harvey Plastic Products, Hamilton, New Zealand) was inserted.
(§7) In a parallel study, an alternative progesterone-releasing device (Snychro-Mate-B, Sanofi Animal Health, Overland Park, Kans.) was placed in the left ear. The mid-luteal phase was simulated after permitting a 10 day intravaginal or ear progesterone treatment. Experiments were performed in the simulated mid-luteal phase as described above.
(§8) The progesterone-releasing (vaginal or ear) implant was removed and the follicular phase was simulated by allowing a time lapse of 48 h. Experiments were performed in the follicular phase as described above.
(§9) Next, 200 μg of leuprolide acetate in 5 ml of aqueous solutions was vaginally administered during simulated anestrus (estradiol only), mid-luteal (estradiol and progesterone), and follicular (48 h after progesterone withdrawal) phases, as described above. […] In contrast, 100% of animals responded when treated with progesterone and estradiol (FIG. 3).

Data set [2] deals with luteinizing hormone (LH). The experiment in a line: in vivo. The data set is classed as in vivo, sheep. Particulars: for animals responded: vaginal 200 μg; for LH response: vaginal, progesterone and estradiol treatment. As to the method:
as §3, §4, §5, §6, §7, §8, §9

The nature of data set [3]: Bioavailability of peptides after vaginal administration to sheep, relative to intravenous injection. Particulars: in vivo. How it is done:
as §1, §2
The enhanced bioavailability of LHRH also coincides with a longer-term release into the systemic circulation at the optimal methocel concentrations. […] To test this hypothesis, the efficacy of a second, physically cross-linked hydrogel that was believed would not enhance endocytosis, but whose apparent viscosity (in the range of hydrogel concentrations 0.0-5.5%) was similar to that of the methocels (in the range 0.0-3.0%) was examined.

In general, bioavailability refers to the share of a dose that reaches the circulation, judged against a reference dose that is usually intravenous. Regarding `CCNC(=O)[C@@H]1CCCN1C(=O)[C@H](CCCNC(=N)N)NC(=O)[C@H](CC(C)C)NC(=O)[C@@H](CC(C)C)NC(=O)[C@H](Cc1ccc(O)cc1)NC(=O)[C@H](CO)NC(=O)[C@H](Cc1c[nH]c2ccccc12)NC(=O)[C@H](Cc1c[nH]cn1)NC(=O)[C@@H]1CCC(=O)N1` [leuprolide acetate], the “luteinizing hormone (LH) response” value is reported as “significant” in the data set with luteinizing hormone (LH) [1] (intravenous injection (FIG. 1b)) and “significant” in the data set on luteinizing hormone (LH) [1] (vaginal administration, aqueous solution (FIG. 1b)). Besides, in the data set on luteinizing hormone (LH) [1] (vaginal administration, intact ewes, bimodal distribution), the “animals showing little or no response” value was “approximately 30%”. In the data set with luteinizing hormone (LH) [1] (vaginal, 5 ml methocel solution, intact ewes, all methocel concentrations (FIG. 2)), the “treated animals that responded with LH levels greater than 3 ng/ml for more than one sampling point” value is reported as “less than 50%”. Also, the bioavailability in “in vivo” is 6%; with luteinizing hormone (LH) [2] (female, sheep, in vivo, 40 ug) it was 10%; in data set [3] (female, sheep), 2.6 ± 0.9%. For the same compound, the animals responded in the data set on luteinizing hormone (LH) [2] (treated with progesterone and estradiol (FIG. 3)) is listed as 100%; in the data set on luteinizing hormone (LH) [2] (with or without 1.75% methocel, estrogen replacement without progesterone), “less than 50%”. The LH response entry was “saturated” with luteinizing hormone (LH) [2] (highest dose, with and without methocel); “undetectable” with luteinizing hormone (LH) [2] (lowest dose (10 μg)). Besides, the “duration of delivery as a function of control gel concentration” value in data set [3] is given as “diminished with increasing control gel concentration”. For the same compound, the “bioavailability as a function of control hydrogel concentration” value in data set [3] (sheep) is “diminished with increasing concentration of the hydrogel”. The “bioavailability as a function of methocel concentration” value in data set [3] (sheep, 200 ug) is “increase as methocel concentration increased to 1.75%, then to fall at higher methocel concentration”.
